In ChEMBL document CHEMBL1201862, “PubChem BioAssay data set” (2004):
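Cultured in 96-well plates, cells were exposed to test compound for 48 hours across five concentrations. At the GI50, growth is halved.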 The source made the active and inactive calls. No stated cut-off is given here; in the data, active = GI50 up to about 1.1 µM and inactive = higher.

Tests used:
Assay in all cases: NCI-60 cell line screen, 48 h
T47D = system: T47D
DLD-1 = system: DLD-1
RXF 631 = system: RXF 631
SNB-78 = system: SNB-78
DMS-273 = system: DMS-273
KM-20L2 = system: KM-20L2
M19-MEL = system: M19-MEL
DMS-114 = system: DMS-114
LXFL 529 = system: LXFL 529

Compound | GI50 (T47D) | GI50 (DLD-1) | GI50 (RXF 631) | GI50 (SNB-78) | GI50 (DMS-273) | GI50 (KM-20L2) | GI50 (M19-MEL) | GI50 (DMS-114) | GI50 (LXFL 529)
CCSc1nc(N)c2c(-c3ccc(OC)c(OC)c3)c3c(nc2n1)CCCC3 | > 100 µM (inactive) |  |  |  |  |  |  |  | 
COc1cc(/C=C/C2=C(C#N)C(=O)OC2(C)C)ccc1O |  | 54 µM (inactive) | 93.1 µM (inactive) | > 100 µM (inactive) | > 100 µM (inactive) | 58.5 µM (inactive) | > 100 µM (inactive) |  | 
COC(=O)C1=C(O)C(C(=O)OC)[C@]2(O)[C@@H](C(=O)OC)[C@H]1C[C@@H](c1ccccc1)[C@@H]2C(=O)OC (some centres undefined) | 27.6 µM (inactive) |  |  |  |  |  |  |  | 
Cc1c(OCc2ccccc2)c(=O)ccn1CCc1c[nH]c2ccccc12 | 17.3 µM (inactive) |  |  |  |  |  |  |  | 
O=C1C2Cc3ccccc3CN2C(=O)N1CN1CCCCC1 (centres undefined) |  | > 100 µM (inactive) |  |  | 50.8 µM (inactive) | > 100 µM (inactive) | > 100 µM (inactive) | > 100 µM (inactive) | > 100 µM (inactive)
COC(=O)C1(c2ccc(N(C)C)cc2OC)CCCN(C(=O)Oc2ccccc2[N+](=O)[O-])CCc2c1[nH]c1ccccc21 (centres undefined) | > 100 µM (inactive) |  |  |  |  |  |  |  | 
COc1ccc(Sc2ccccc2N)cc1 |  | 43.5 µM (inactive) |  | 37.8 µM (inactive) | 30.6 µM (inactive) | 52.6 µM (inactive) | 36.7 µM (inactive) | 29.8 µM (inactive) | 41 µM (inactive)
Cc1c(N=NN(C)C)cc[n+]([O-])c1C |  | > 100 µM (inactive) |  | > 100 µM (inactive) | > 100 µM (inactive) | > 100 µM (inactive) | > 100 µM (inactive) | > 100 µM (inactive) | 
COc1cc(C)cc2c1C(=O)C(NC(C)=O)=CC2=O | 59.3 µM (inactive) |  |  |  |  |  |  |  | 
O=C1Oc2ccc([N+](=O)[O-])cc2N/C1=C\C(=O)c1ccccc1 | 97.5 µM (inactive) |  |  |  |  |  |  |  | 
COc1cc2c(cc1OC)-c1c(cnn1C1OC(COC(C)=O)C(OC(C)=O)C(OC(C)=O)C1OC(C)=O)CC2 (centres undefined) |  | > 100 µM (inactive) |  | > 100 µM (inactive) | > 100 µM (inactive) | > 100 µM (inactive) | > 89.1 µM (inactive) | 72.6 µM (inactive) | > 85.7 µM (inactive)
Oc1ccccc1-c1nn2c(CCCCCCCCc3nnc4sc(-c5ccccc5O)nn34)nnc2s1 | 4.9 µM (inactive) |  |  |  |  |  |  |  | 
[N-]=[N+]=Nc1c(C=O)c(=O)n2c3c(cccc13)CCC2 | 4.86 µM (inactive) |  |  |  |  |  |  |  | 
C=C/C(C)=C/[C@H](C)C(=O)C[C@H](O)CC1CC(=O)NC(=O)C1 |  | 44.2 µM (inactive) |  | 27.4 µM (inactive) | 34.9 µM (inactive) | 19.2 µM (inactive) | 80.4 µM (inactive) | 38.3 µM (inactive) | 
CN1CC=C(c2cccn2C)CC1 | > 100 µM (inactive) |  |  |  |  |  |  |  | 
O=c1ccn(CC2(CO)CC(Cc3ccccc3)C2)c(=O)[nH]1 (centres undefined) | > 100 µM (inactive) |  |  |  |  |  |  |  | 
CCOC(=O)C[C@@H]1C2(C=C[C@@]13CO3)OCC(C)(C)CO2 | > 100 µM (inactive) |  |  |  |  |  |  |  | 
CCCCOP(C)(=O)C(NC(=O)OCC)(C(F)(F)F)C(F)(F)F (centres undefined) | > 100 µM (inactive) |  |  |  |  |  |  |  | 
Nc1nnc(N)n1NC(=O)C(=O)Nc1ccc([N+](=O)[O-])cc1 |  | > 100 µM (inactive) | > 100 µM (inactive) | > 100 µM (inactive) | > 100 µM (inactive) | > 100 µM (inactive) | > 100 µM (inactive) | > 100 µM (inactive) | 
O=c1cnn(C2OC(CO)C(O)C2O)c(=S)[nH]1 (centres undefined) | > 100 µM (inactive) | 8.47 µM (inactive) | 14.3 µM (inactive) | > 91.2 µM (inactive) | 2.31 µM (inactive) | 28.9 µM (inactive) | 43.1 µM (inactive) | 29.6 µM (inactive) | 11.5 µM (inactive)
COc1ccc(C2C(C(=O)O)=C(COC(C)=O)Oc3cc4c(cc32)OCO4)cc1 (centres undefined) |  | > 100 µM (inactive) | > 100 µM (inactive) | > 100 µM (inactive) | > 100 µM (inactive) | > 100 µM (inactive) | > 100 µM (inactive) | > 100 µM (inactive) | 
Nc1nn(CC(O)CO)c(=O)s1 (centres undefined) |  | > 100 µM (inactive) | > 100 µM (inactive) |  | > 100 µM (inactive) | > 100 µM (inactive) | > 100 µM (inactive) | > 100 µM (inactive) | > 100 µM (inactive)

Compound | GI50 (T47D) | GI50 (DLD-1) | GI50 (RXF 631) | GI50 (SNB-78) | GI50 (DMS-273) | GI50 (KM-20L2) | GI50 (M19-MEL) | GI50 (DMS-114) | GI50 (LXFL 529)
O=Cc1cn(CCCCCCCCn2cc(C=O)c3ccccc32)c2ccccc12 | 3.91 µM (inactive) |  |  |  |  |  |  |  | 
CCCNC(/C=C/[Si](C)(C)C)CO.CCCNCC(O)/C=C/[Si](C)(C)C (centres undefined) |  | > 100 µM (inactive) | > 100 µM (inactive) | > 100 µM (inactive) |  | > 100 µM (inactive) | > 100 µM (inactive) | > 100 µM (inactive) | > 100 µM (inactive)
N/C(=N\O)N/N=C\c1cc([N+](=O)[O-])cc([N+](=O)[O-])c1O |  | > 37.2 µM (inactive) |  | > 100 µM (inactive) | 2.72 µM (inactive) | 24.9 µM (inactive) | 40.6 µM (inactive) | 6.08 µM (inactive) | 
COP(=O)(OC)C(Cc1cn(C(C)=O)c2ccccc12)C(=O)O (centres undefined) | > 100 µM (inactive) |  |  |  |  |  |  |  | 
COC(=O)c1ccc(NCC2=C(Br)C(=O)C=CC2=O)cc1Cl | 20 µM (inactive) |  |  |  |  |  |  |  | 
O=C1C(Cl)=C(N2CCC[C@H]2CO)C(=O)c2c(O)ccc(O)c21 | 2.11 µM (inactive) |  |  |  |  |  |  |  | 
N#C/C(=C\c1cccc(O)c1O)C(N)=O |  | 45.4 µM (inactive) | 48.8 µM (inactive) | 52 µM (inactive) | 57.3 µM (inactive) | 52.5 µM (inactive) | 54.8 µM (inactive) | 29.9 µM (inactive) | 50.6 µM (inactive)
C/C([O-])=C(/c1nc(-c2ccc([N+](=O)[O-])o2)no1)[n+]1cc(C)ccc1C |  | 11.5 µM (inactive) |  | 20.7 µM (inactive) | 11.7 µM (inactive) | 12.6 µM (inactive) | 5.19 µM (inactive) | 16.3 µM (inactive) | 
CCCCOP1(=O)C=CC(Cl)=C(C)C1 (centres undefined) |  |  | 29.1 µM (inactive) |  |  | 22.8 µM (inactive) | 29.7 µM (inactive) | 25.1 µM (inactive) | 27.9 µM (inactive)
COC1C=CC(O)C(CO)O1 (centres undefined) |  | > 100 µM (inactive) |  | > 100 µM (inactive) |  | > 100 µM (inactive) | > 100 µM (inactive) |  | > 100 µM (inactive)
CCOC(=O)/C(C(=O)Nc1ccc(Cl)cc1)=C(/N)N1CCCC1 | > 100 µM (inactive) |  |  |  |  |  |  |  | 
CSc1nc2c(ncn2C2OCC(O)C(O)C2O)c(=O)n1C (centres undefined) |  | > 100 µM (inactive) |  | > 100 µM (inactive) | > 100 µM (inactive) | > 100 µM (inactive) | > 100 µM (inactive) | > 100 µM (inactive) | 
CCOC(=O)c1ccc(N[C@@H]2c3cc4c(cc3C(c3cc(OC)c(O)c(OC)c3)[C@H]3C(=O)OCC32)OCO4)cc1 (some centres undefined) |  | 1.44 µM (inactive) |  | 4.1 µM (inactive) |  | 0.713 µM (active) | 1.75 µM (inactive) | 0.56 µM (active) | 4.55 µM (inactive)
COc1cc(C2c3cc4c(cc3[C@@H](Nc3cccc(C(C)=O)c3)C3COC(=O)[C@H]23)OCO4)cc(OC)c1O (some centres undefined) |  | 1.37 µM (inactive) |  | 2.75 µM (inactive) | 0.0497 µM (active) | 1.66 µM (inactive) | 0.897 µM (active) | 0.505 µM (active) | 
CC1C[C@]2(C[C@@H](C)C(=O)O2)OC2CC3(C)C4CCC5C(C)(C)OC(=O)CC[C@@]56C[C@@]46CC[C@]3(C)C12 (some centres undefined) |  | > 100 µM (inactive) | > 100 µM (inactive) | > 100 µM (inactive) | > 100 µM (inactive) |  |  | > 100 µM (inactive) | > 100 µM (inactive)
COc1cc(C2c3cc4c(cc3[C@@H](Nc3ccc(N5CCOCC5)cc3)C3COC(=O)[C@H]23)OCO4)cc(OC)c1O (some centres undefined) |  | 1.55 µM (inactive) |  |  | 0.238 µM (active) | 1.57 µM (inactive) | 1.71 µM (inactive) |  | 
COc1cc2cc(C(=O)N3CC(CCl)c4c3cc(N(C)C)c3ccccc43)[nH]c2c(OC)c1OC (centres undefined) | < 0.01 µM (active) |  |  |  |  |  |  |  | 
Cc1ccc2c(O)cc(-c3cc(C)sc3C)nc2n1 | 2.67 µM (inactive) |  |  |  |  |  |  |  | 
CCCCCc1cccc(=O)o1 | > 100 µM (inactive) |  |  |  |  |  |  |  | 
CN(C(=O)c1ccc(OCCCC(=O)O)c(Cl)c1Cl)C1CCCC1 |  | > 100 µM (inactive) |  | > 100 µM (inactive) | > 100 µM (inactive) | > 100 µM (inactive) | > 100 µM (inactive) | 69.5 µM (inactive) | 
CCCCCCCCCCCC1=C(O)C(=O)C=C(O)C1=O [EMBELIN] |  | 8.49 µM (inactive) |  | 9.66 µM (inactive) | 4.72 µM (inactive) | 7.43 µM (inactive) |  | 5.47 µM (inactive) | 
